For 25 molecules, IC50 results are on record in patent US9296757B2, “Substituted benzothienopyrimidines” (BAYER PHARMA AKTIENGESELLSCHAFT, priority 2012, dated 2016).

SMILES strings stand for the structures.

human full-length MKNK1, sequence (Q9BUB5 other isoform, or with tags, fused parts or gaps T344D): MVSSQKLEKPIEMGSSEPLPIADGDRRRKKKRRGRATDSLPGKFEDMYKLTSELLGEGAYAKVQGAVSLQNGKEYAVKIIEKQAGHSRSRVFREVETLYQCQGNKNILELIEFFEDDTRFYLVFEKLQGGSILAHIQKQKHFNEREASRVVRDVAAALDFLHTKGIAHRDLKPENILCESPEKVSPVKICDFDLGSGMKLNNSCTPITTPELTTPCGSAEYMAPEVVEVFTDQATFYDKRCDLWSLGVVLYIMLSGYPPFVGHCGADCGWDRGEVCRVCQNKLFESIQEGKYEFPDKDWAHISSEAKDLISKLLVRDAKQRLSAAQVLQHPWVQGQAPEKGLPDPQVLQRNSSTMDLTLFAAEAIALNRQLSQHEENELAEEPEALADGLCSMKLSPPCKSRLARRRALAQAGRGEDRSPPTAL

This test concerns the target human full-length MKNK1 (Homo sapiens (Human), UniProt Q9BUB5, T344D). As to the kind of experiment: MKNK1 kinase high ATP assay (TR-FRET). It is filed as biochemical. As to conditions: high ATP (2 mM final), 15 min preincubation with enzyme. In outline:
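GST-tagged full-length MKNK1 (T344D), insect-cell expressed, preincubated 15 min at 22 °C with compound, then reacted 30 min at 22 °C with 2 mM ATP and 0.06 μM biotinylated peptide in HEPES pH 7.5 buffer (final concentrations). Phospho-peptide detected by TR-FRET (665/620 nm ratio), normalised to no-inhibitor and no-enzyme controls.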
Turning to `CN(CCCO)C(=O)C1CCc2c(sc3ncnc(Nc4ccc5[nH]c(=O)sc5c4)c23)C1` (racemic) [Example 67, (RS)-N-(3-hydroxypropyl)-N-methyl-4-[(2-oxo-2,3-dihydro-1,3-benzothiazol-6-yl)amino]-5,6,7,8-tetrahydro[1]benzothieno[2,3-d]pyrimidine-7-carboxamide], 62 nM corresponded to half-maximal inhibition (IC50).

Take `CC1CN(C(=O)C2CCc3c(sc4ncnc(Nc5ccc6[nH]c(=O)sc6c5)c34)C2)CC(C)O1` (racemic) [Example 68, 6-{[(7RS)-7-{[(2RS,6RS)-2,6-dimethylmorpholin-4-yl]carbonyl}-5,6,7,8-tetrahydro[1]benzothieno[2,3-d]pyrimidin-4-yl]amino}-1,3-benzothiazol-2(3H)-one]: the IC50 (as a rule, the point on the concentration scale where inhibition reaches its midpoint) came out at 32 nM.

With `CCCN(CCOC)C(=O)C1CCc2c(sc3ncnc(Nc4ccc5[nH]c(=O)sc5c4)c23)C1` (racemic) [Example 69, (RS)-N-(2-methoxyethyl)-4-[(2-oxo-2,3-dihydro-1,3-benzothiazol-6-yl)amino]-N-propyl-5,6,7,8-tetrahydro[1]benzothieno[2,3-d]pyrimidine-7-carboxamide], half-maximal inhibition (IC50) required 19 nM.

As for `CCN(CCOC)C(=O)C1CCc2c(sc3ncnc(Nc4ccc5[nH]c(=O)sc5c4)c23)C1` (racemic) [Example 70, (RS)-N-ethyl-N-(2-methoxyethyl)-4-[(2-oxo-2,3-dihydro-1,3-benzothiazol-6-yl)amino]-5,6,7,8-tetrahydro[1]benzothieno[2,3-d]pyrimidine-7-carboxamide], the IC50 was found to be 24 nM.

As to `O=C(C1CCc2c(sc3ncnc(Nc4ccc5[nH]c(=O)sc5c4)c23)C1)N1CCC(CO)CC1` (racemic) [Example 71, (RS)-6-[(7-{[4-(hydroxymethyl)piperidin-1-yl]carbonyl}-5,6,7,8-tetrahydro[1]benzothieno[2,3-d]pyrimidin-4-yl)amino]-1,3-benzothiazol-2(3H)-one], 47 nM corresponded to half-maximal inhibition (IC50).

Molecule `COCCN1CCN(C(=O)C2CCc3c(sc4ncnc(Nc5ccc6[nH]c(=O)sc6c5)c34)C2)CC1` (racemic) [Example 72, (RS)-6-[(7-{[4-(2-methoxyethyl)piperazin-1-yl]carbonyl}-5,6,7,8-tetrahydro[1]benzothieno[2,3-d]pyrimidin-4-yl)amino]-1,3-benzothiazol-2(3H)-one] had an IC50 of 44 nM.

`CN(C)C1CCN(C(=O)C2CCc3c(sc4ncnc(Nc5ccc6[nH]c(=O)sc6c5)c34)C2)C1` (racemic) [Example 73, 6-{[(7RS)-7-{[(3RS)-3-(dimethylamino)pyrrolidin-1-yl]carbonyl}-5,6,7,8-tetrahydro[1]benzothieno[2,3-d]pyrimidin-4-yl]amino}-1,3-benzothiazol-2(3H)-one] displayed a concentration for half-maximal inhibition (IC50) of 34 nM.

Regarding `CN1CC2CC1CN2C(=O)C1CCc2c(sc3ncnc(Nc4ccc5[nH]c(=O)sc5c4)c23)C1` (racemic) [Example 74, 6-{[(7RS)-7-{[(1RS,4RS)-5-methyl-2,5-diazabicyclo[2.2.1]hept-2-yl]carbonyl}-5,6,7,8-tetrahydro[1]benzothieno[2,3-d]pyrimidin-4-yl]amino}-1,3-benzothiazol-2(3H)-one], the IC50 turned out to be 47 nM. This IC50 and that of the molecule before are within 1.5-fold of each other.

Molecule `N#CC1CCCN(C(=O)C2CCc3c(sc4ncnc(Nc5ccc6[nH]c(=O)sc6c5)c34)C2)C1` (racemic) [Example 75, (3RS)-1-({(7RS)-4-[(2-oxo-2,3-dihydro-1,3-benzothiazol-6-yl)amino]-5,6,7,8-tetrahydro[1]benzothieno[2,3-d]pyrimidin-7-yl}carbonyl)piperidine-3-carbonitrile] registered an IC50 of 32 nM.

The molecule `N#CC1CCN(C(=O)C2CCc3c(sc4ncnc(Nc5ccc6[nH]c(=O)sc6c5)c34)C2)CC1` (racemic) [Example 76, (RS)-1-({4-[(2-oxo-2,3-dihydro-1,3-benzothiazol-6-yl)amino]-5,6,7,8-tetrahydro[1]benzothieno[2,3-d]pyrimidin-7-yl}carbonyl)piperidine-4-carbonitrile] yielded an IC50 of 54 nM.

Regarding `COCC1CCCN1C(=O)C1CCc2c(sc3ncnc(Nc4ccc5[nH]c(=O)sc5c4)c23)C1` (racemic) [Example 77, 6-{[(7RS)-7-{[(2RS)-2-(methoxymethyl)pyrrolidin-1-yl]carbonyl}-5,6,7,8-tetrahydro[1]benzothieno[2,3-d]pyrimidin-4-yl]amino}-1,3-benzothiazol-2(3H)-one], half-maximal inhibition (IC50) was put at 41 nM.

`O=C(C1CCc2c(sc3ncnc(Nc4ccc5[nH]c(=O)sc5c4)c23)C1)N1CCN(CC2CC2)CC1` (racemic) [Example 78, (RS)-6-[(7-{[4-(cyclopropylmethyl)piperazin-1-yl]carbonyl}-5,6,7,8-tetrahydro[1]benzothieno[2,3-d]pyrimidin-4-yl)amino]-1,3-benzothiazol-2(3H)-one] displayed an IC50 of 34 nM. The IC50 values of the last two molecules are within 1.5-fold of each other.

In turn, `O=C(C1CCc2c(sc3ncnc(Nc4ccc5[nH]c(=O)sc5c4)c23)C1)N1CC(N2CCCCC2)C1` (racemic) [Example 79, (RS)-6-[(7-{[3-(piperidin-1-yl)azetidin-1-yl]carbonyl}-5,6,7,8-tetrahydro[1]benzothieno[2,3-d]pyrimidin-4-yl)amino]-1,3-benzothiazol-2(3H)-one] registered an IC50 of 38 nM.

Molecule `CN(C(=O)C1CCc2c(sc3ncnc(Nc4ccc5[nH]c(=O)sc5c4)c23)C1)C1CCOC(C)(C)C1` (racemic) [Example 80, (RS)-N-(2,2-dimethyltetrahydro-2H-pyran-4-yl)-N-methyl-4-[(2-oxo-2,3-dihydro-1,3-benzothiazol-6-yl)amino]-5,6,7,8-tetrahydro[1]benzothieno[2,3-d]pyrimidine-7-carboxamide] showed an IC50 of 42 nM.

`CN1CCN(C(=O)C2CCc3c(sc4ncnc(Nc5ccc6[nH]c(=O)sc6c5)c34)C2)CC1CCO` (racemic) [Example 81, 6-{[(7RS)-7-{[(3RS)-3-(2-hydroxyethyl)-4-methylpiperazin-1-yl]carbonyl}-5,6,7,8-tetrahydro[1]benzothieno[2,3-d]pyrimidin-4-yl]amino}-1,3-benzothiazol-2(3H)-one]: the IC50 was determined as 34 nM.

Molecule `CN(CCN1CCOCC1)C(=O)C1CCc2c(sc3ncnc(Nc4ccc5[nH]c(=O)sc5c4)c23)C1` (racemic) [Example 82, (RS)-N-methyl-N-[2-(morpholin-4-yl)ethyl]-4-[(2-oxo-2,3-dihydro-1,3-benzothiazol-6-yl)amino]-5,6,7,8-tetrahydro[1]benzothieno[2,3-d]pyrimidine-7-carboxamide] displayed an IC50 of 46 nM.

In turn, `O=C(C1CCc2c(sc3ncnc(Nc4ccc5[nH]c(=O)sc5c4)c23)C1)N1CC2(COC2)C1` (racemic) [Example 83, (RS)-6-{[7-(2-oxa-6-azaspiro[3.3]hept-6-ylcarbonyl)-5,6,7,8-tetrahydro[1]benzothieno[2,3-d]pyrimidin-4-yl]amino}-1,3-benzothiazol-2(3H)-one] had an IC50 of 52 nM. This IC50 and that of the molecule before are within 1.5-fold of each other.

For the molecule `COC1CCCN(C(=O)C2CCc3c(sc4ncnc(Nc5ccc6[nH]c(=O)sc6c5)c34)C2)C1` (racemic) [Example 84, 6-{[(7RS)-7-{[(3RS)-3-methoxypiperidin-1-yl]carbonyl}-5,6,7,8-tetrahydro[1]benzothieno[2,3-d]pyrimidin-4-yl]amino}-1,3-benzothiazol-2(3H)-one], the IC50 was determined as 30 nM. This IC50 lies about 1.7-fold lower than the previous one.

In turn, `COc1cc2[nH]c(=O)sc2cc1Nc1ncnc2sc3c(c12)CCC(C(=O)N(C)C)C3` (racemic) [Example 85, (RS)-4-[(5-methoxy-2-oxo-2,3-dihydro-1,3-benzothiazol-6-yl)amino]-N,N-dimethyl-5,6,7,8-tetrahydro[1]benzothieno[2,3-d]pyrimidine-7-carboxamide] registered an IC50 of 4 nM.

`CCN(C(=O)C1CCc2c(sc3ncnc(Nc4cc5sc(=O)[nH]c5cc4OC)c23)C1)C(C)C` (racemic) [Example 86, (RS)—N-Ethyl-N-isopropyl-4-[(5-methoxy-2-oxo-2,3-dihydro-1,3-benzothiazol-6-yl)amino]-5,6,7,8-tetrahydro[1]benzothieno[2,3-d]pyrimidine-7-carboxamide] registered an IC50 of 3 nM.

`CCCN(CCOC)C(=O)C1CCc2c(sc3ncnc(Nc4cc5sc(=O)[nH]c5cc4OC)c23)C1` (racemic) [Example 87, (RS)—N-(2-Methoxyethyl)-4-[(5-methoxy-2-oxo-2,3-dihydro-1,3-benzothiazol-6-yl)amino]-N-propyl-5,6,7,8-tetrahydro[1]benzothieno[2,3-d]pyrimidine-7-carboxamide]: the IC50 was 2 nM. Compared with the last molecule, the IC50 is about 1.5-fold lower.

Consider `CCCCN(CC#N)C(=O)C1CCc2c(sc3ncnc(Nc4cc5sc(=O)[nH]c5cc4OC)c23)C1` (racemic) [Example 88, (RS)—N-Butyl-N-(cyanomethyl)-4-[(5-methoxy-2-oxo-2,3-dihydro-1,3-benzothiazol-6-yl)amino]-5,6,7,8-tetrahydro[1]benzothieno[2,3-d]pyrimidine-7-carboxamide], for which the midpoint of inhibition, the IC50, lay at 1 nM.

Turning to `CCCCN(C)C(=O)C1CCc2c(sc3ncnc(Nc4cc5sc(=O)[nH]c5cc4OC)c23)C1` (racemic) [Example 89, (RS)—N-Butyl-4-[(5-methoxy-2-oxo-2,3-dihydro-1,3-benzothiazol-6-yl)amino]-N-methyl-5,6,7,8-tetrahydro[1]benzothieno[2,3-d]pyrimidine-7-carboxamide], half-maximal inhibition (IC50) was put at 1.9 nM.

Turning to `CCN(CCOC)C(=O)C1CCc2c(sc3ncnc(Nc4cc5sc(=O)[nH]c5cc4OC)c23)C1` (racemic) [Example 90, (RS)—N-Ethyl-N-(2-methoxyethyl)-4-[(5-methoxy-2-oxo-2,3-dihydro-1,3-benzothiazol-6-yl)amino]-5,6,7,8-tetrahydro[1]benzothieno[2,3-d]pyrimidine-7-carboxamide], the IC50 stood at 1 nM.

As for `N#CC1CN(C(=O)C2CCc3c(sc4ncnc(Nc5ccc6[nH]c(=O)sc6c5)c34)C2)C1` (racemic) [Example 91, (RS)-1-({4-[(2-Oxo-2,3-dihydro-1,3-benzothiazol-6-yl)amino]-5,6,7,8-tetrahydro[1]benzothieno[2,3-d]pyrimidin-7-yl}carbonyl)azetidine-3-carbonitrile], inhibition was half-maximal at 38.7 nM (IC50).
